Test results reported in patent US8192962B2, “Processes for detecting toxic substances” (Daikin Industries, Ltd., priority 2001, dated 2012).

Test system: Energy system protein genes
Test: DNA chip mRNA expression in yeast, energy system protein genes (Table 4)
Assay type: cell-based, Saccharomyces cerevisiae S288C
Outline: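 Measured as treated-to-untreated fluorescence ratio on a full-genome yeast DNA chip. Cells (S288C, YPD, 25° C.) were exposed in log phase for two hours to one chemical, dosed to curb growth without killing.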

CCCCC[C@H](O)CC(=O)CCc1ccc(O)c(OC)c1 [(13), gingerol]
The level of expressed mRNA in the presence of chemical substance/The level of expressed mRNA in the absence of chemical substance (yeast gene YAL038W): 1.8
The level of expressed mRNA in the presence of chemical substance/The level of expressed mRNA in the absence of chemical substance (yeast gene YAL054C): 1.8
The level of expressed mRNA in the presence of chemical substance/The level of expressed mRNA in the absence of chemical substance (yeast gene YAL060W): 2.2
The level of expressed mRNA in the presence of chemical substance/The level of expressed mRNA in the absence of chemical substance (yeast gene YBL058W, cells incubated two hours with the chemical substance): 1.6
The level of expressed mRNA in the presence of chemical substance/The level of expressed mRNA in the absence of chemical substance (yeast gene YBR126C): 2.1
The level of expressed mRNA in the presence of chemical substance/The level of expressed mRNA in the absence of chemical substance (yeast gene YBR145W): 2.0
The level of expressed mRNA in the presence of chemical substance/The level of expressed mRNA in the absence of chemical substance (yeast gene YBR185C, cells incubated two hours with the chemical substance): 1.0
The level of expressed mRNA in the presence of chemical substance/The level of expressed mRNA in the absence of chemical substance (yeast gene YBR196C): 1.4
The level of expressed mRNA in the presence of chemical substance/The level of expressed mRNA in the absence of chemical substance (yeast gene YBR299W): 0.7
The level of expressed mRNA in the presence of chemical substance/The level of expressed mRNA in the absence of chemical substance (yeast gene YCR005C): 0.7
The level of expressed mRNA in the presence of chemical substance/The level of expressed mRNA in the absence of chemical substance (yeast gene YCR046C, cells incubated two hours with the chemical substance): 1.5
The level of expressed mRNA in the presence of chemical substance/The level of expressed mRNA in the absence of chemical substance (yeast gene YCR107W): 4.0
The level of expressed mRNA in the presence of chemical substance/The level of expressed mRNA in the absence of chemical substance (yeast gene YDL067C, cells incubated two hours with the chemical substance): 0.6
The level of expressed mRNA in the presence of chemical substance/The level of expressed mRNA in the absence of chemical substance (yeast gene YDL078C, cells incubated two hours with the chemical substance): 1.0
The level of expressed mRNA in the presence of chemical substance/The level of expressed mRNA in the absence of chemical substance (yeast gene YDL107W, cells incubated two hours with the chemical substance): 1.2
The level of expressed mRNA in the presence of chemical substance/The level of expressed mRNA in the absence of chemical substance (yeast gene YDL174C): 5.9
The level of expressed mRNA in the presence of chemical substance/The level of expressed mRNA in the absence of chemical substance (yeast gene YDR001C): 2.8
The level of expressed mRNA in the presence of chemical substance/The level of expressed mRNA in the absence of chemical substance (yeast gene YDR231C): 2.4
The level of expressed mRNA in the presence of chemical substance/The level of expressed mRNA in the absence of chemical substance (yeast gene YDR298C, cells incubated two hours with the chemical substance): 1.2
The level of expressed mRNA in the presence of chemical substance/The level of expressed mRNA in the absence of chemical substance (yeast gene YDR377W, cells incubated two hours with the chemical substance): 0.7
The level of expressed mRNA in the presence of chemical substance/The level of expressed mRNA in the absence of chemical substance (yeast gene YDR380W): 0.4
The level of expressed mRNA in the presence of chemical substance/The level of expressed mRNA in the absence of chemical substance (yeast gene YDR529C, cells incubated two hours with the chemical substance): 0.7
The level of expressed mRNA in the presence of chemical substance/The level of expressed mRNA in the absence of chemical substance (yeast gene YEL011W): 1.5
The level of expressed mRNA in the presence of chemical substance/The level of expressed mRNA in the absence of chemical substance (yeast gene YEL020C): 1.2
The level of expressed mRNA in the presence of chemical substance/The level of expressed mRNA in the absence of chemical substance (yeast gene YEL024W, cells incubated two hours with the chemical substance): 0.6
The level of expressed mRNA in the presence of chemical substance/The level of expressed mRNA in the absence of chemical substance (yeast gene YEL047C, cells incubated two hours with the chemical substance): 1.6
The level of expressed mRNA in the presence of chemical substance/The level of expressed mRNA in the absence of chemical substance (yeast gene YEL071W, cells incubated two hours with the chemical substance): 1.6
The level of expressed mRNA in the presence of chemical substance/The level of expressed mRNA in the absence of chemical substance (yeast gene YER178W): 2.4
The level of expressed mRNA in the presence of chemical substance/The level of expressed mRNA in the absence of chemical substance (yeast gene YFR015C): 2.5
The level of expressed mRNA in the presence of chemical substance/The level of expressed mRNA in the absence of chemical substance (yeast gene YFR053C): 3.0
The level of expressed mRNA in the presence of chemical substance/The level of expressed mRNA in the absence of chemical substance (yeast gene YGL134W): 0.7
The level of expressed mRNA in the presence of chemical substance/The level of expressed mRNA in the absence of chemical substance (yeast gene YGL187C, cells incubated two hours with the chemical substance): 0.7
The level of expressed mRNA in the presence of chemical substance/The level of expressed mRNA in the absence of chemical substance (yeast gene YGL191W, cells incubated two hours with the chemical substance): 1.1
The level of expressed mRNA in the presence of chemical substance/The level of expressed mRNA in the absence of chemical substance (yeast gene YGL205W, cells incubated two hours with the chemical substance): 1.0
The level of expressed mRNA in the presence of chemical substance/The level of expressed mRNA in the absence of chemical substance (yeast gene YGL253W): 1.5
The level of expressed mRNA in the presence of chemical substance/The level of expressed mRNA in the absence of chemical substance (yeast gene YGR008C): 3.4
The level of expressed mRNA in the presence of chemical substance/The level of expressed mRNA in the absence of chemical substance (yeast gene YGR062C, cells incubated two hours with the chemical substance, 25° C., YPD medium): 1.5
The level of expressed mRNA in the presence of chemical substance/The level of expressed mRNA in the absence of chemical substance (yeast gene YGR112W, cells incubated two hours with the chemical substance): 1.1
The level of expressed mRNA in the presence of chemical substance/The level of expressed mRNA in the absence of chemical substance (yeast gene YGR192C): 3.4
The level of expressed mRNA in the presence of chemical substance/The level of expressed mRNA in the absence of chemical substance (yeast gene YGR207C): 1.0
The level of expressed mRNA in the presence of chemical substance/The level of expressed mRNA in the absence of chemical substance (yeast gene YGR244C): 2.6
The level of expressed mRNA in the presence of chemical substance/The level of expressed mRNA in the absence of chemical substance (yeast gene YGR254W): 3.1
The level of expressed mRNA in the presence of chemical substance/The level of expressed mRNA in the absence of chemical substance (yeast gene YHL008C): 1.8
The level of expressed mRNA in the presence of chemical substance/The level of expressed mRNA in the absence of chemical substance (yeast gene YHR179W): 2.6
The level of expressed mRNA in the presence of chemical substance/The level of expressed mRNA in the absence of chemical substance (yeast gene YIL045W): 2.0
The level of expressed mRNA in the presence of chemical substance/The level of expressed mRNA in the absence of chemical substance (yeast gene YIL111W): 1.7
The level of expressed mRNA in the presence of chemical substance/The level of expressed mRNA in the absence of chemical substance (yeast gene YIL160C): 2.3
The level of expressed mRNA in the presence of chemical substance/The level of expressed mRNA in the absence of chemical substance (yeast gene YIL172C): 2.0
